Measurements: patent publication US20070160664A1, “Pharmaceutical compositions comprising of proton pump inhibitor and prokinetic agent” (PANACEA BIOTEC LIMITED, priority 2004, published 2007)

Test: Dissolution of domperidone co-processed with an organic acid (developmental studies)
Type: physicochemical
Settings: alkaline pH conditions encountered in the gastro-intestinal tract
Excerpt: According to a preferred embodiment of the invention, domperidone is co-processed with an organic acid in the ratio of from about 1:0.25 to about 0.25:1, preferably from about 1:0.5 to about 0.5:1, most preferably about 1:1. The co-processing may be aided by dissolving the two ingredients with the help of heat followed by cooling, when the dissolved material separates out. The material separated out may be removed and dried. The co-processed material may be incorporated into dosage forms such as tablets, which may further be combined with enteric coated tablets of proton pump inhibitor and an immediate release tablet of domperidone, in a hard gelatin capsule.

dissolution: improved dissolution
SMILES: O=c1[nH]c2ccccc2n1CCCN1CCC(n2c(=O)[nH]c3cc(Cl)ccc32)CC1 [domperidone]
